This is an account of results in ChEMBL document CHEMBL1201862, “PubChem BioAssay data set” (2004).

Some test systems named below: SNB-19; SNB-78; M14; A498; M19-MEL; EKVX; IGROV-1; OVCAR-8; NCI-H460; HOP-62; HCT-15; SK-OV-3; Malme-3M; HCT-116; SK-MEL-5; SK-MEL-28; SF-295; NCI-H23; SK-MEL-2.
Assay in all cases: growth of human tumour cells (NCI), 48 h

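A five-concentration, 48-hour dose response in 96-well plates underlies each endpoint, interpolated linearly between surrounding concentrations. Here, GI50 denotes the concentration required for 50% inhibition of growth.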 Calls of active or inactive are those of the source. Cut-off read from the data, not from the text of the source: active = GI50 up to about 1.1 µM and inactive = higher.

Take `CC(=O)O[C@H]1CC[C@@]2(C)C(=CC[C@H]3C4=CC=C(C(C)=O)[C@@]4(C)CCC32)C1` (stereo partly drawn): the GI50 is 63.8 µM (inactive) in the experiment with SNB-19; 28.2 µM (inactive) in the experiment with SNB-78; 33.7 µM (inactive) with M14; 32.4 µM (inactive) with A498; 36.3 µM (inactive) in the experiment with M19-MEL; 13.1 µM (inactive) in the experiment on EKVX. Moreover, the GI50 in the experiment on IGROV-1 was 56.2 µM (inactive); with OVCAR-8 it was 21.8 µM (inactive); in the experiment with NCI-H460, 43.7 µM (inactive); in the experiment with HOP-62, > 100 µM (inactive); with HCT-15 it was 29.8 µM; with SK-OV-3 it was > 100 µM (inactive). Moreover, the GI50 in the experiment with Malme-3M was 31.9 µM (inactive); in the experiment on HCT-116 it was 15.6 µM (inactive); in the experiment on SK-MEL-5 it was 17.7 µM (inactive); with SK-MEL-28, 31 µM (inactive); in the experiment on SF-295, 41 µM (inactive).
Regarding `CCCNC1=C(C)C(=O)C2=C(C1=O)[C@H](COC(N)=O)[C@]1(OC)[C@@H]3N[C@@H]3CN21`, the GI50 is 2.01 µM (inactive) with SNB-19; 0.861 µM (active) in the experiment with NCI-H23; 26.9 µM (inactive) in the experiment with SNB-78; 2.69 µM (inactive) with A498; 3.44 µM (inactive) in the experiment on M19-MEL; 4.3 µM (inactive) in the experiment on EKVX. For the same molecule, the GI50 was 5.04 µM (inactive) in the experiment with IGROV-1; 10 µM (inactive) in the experiment with OVCAR-8; 0.0661 µM (active) in the experiment on NCI-H460; 0.303 µM (active) in the experiment with HOP-62; 4.01 µM in the experiment with HCT-15; 16.6 µM (inactive) in the experiment with SK-OV-3. Besides, the GI50 is 6.07 µM (inactive) with Malme-3M; 3.69 µM (inactive) in the experiment with HCT-116; 0.65 µM (active) in the experiment on SK-MEL-5; 9.51 µM (inactive) in the experiment on SK-MEL-2; 19.8 µM (inactive) with SK-MEL-28; 2.39 µM (inactive) in the experiment with SF-295.
Take `COc1ccc(-c2cc(O)c3cc4c(cc3n2)OCO4)c(OC)c1OC`: the GI50 with SNB-19 was > 100 µM (inactive); in the experiment with NCI-H23, > 100 µM (inactive); with SNB-78 it was > 100 µM (inactive); with M14 it was 68.1 µM (inactive); in the experiment on M19-MEL, 95.1 µM (inactive); in the experiment with EKVX, > 100 µM (inactive). Also, the GI50 in the experiment on IGROV-1 was > 100 µM (inactive); in the experiment on OVCAR-8, > 100 µM (inactive); in the experiment with NCI-H460, 33.6 µM (inactive); in the experiment with HOP-62, 87.1 µM (inactive); in the experiment with HCT-15, more than 100 µM; in the experiment with SK-OV-3 it was 50.8 µM (inactive). Moreover, the GI50 is 40.4 µM (inactive) with Malme-3M; > 100 µM (inactive) in the experiment with HCT-116; 41.5 µM (inactive) with SK-MEL-5; > 100 µM (inactive) with SK-MEL-2; 96.6 µM (inactive) in the experiment on SK-MEL-28; 76.6 µM (inactive) with SF-295.
As to `COc1ccc2c(c1O)C(=O)C(CCC(=O)O)CC2` (stereo not drawn), the GI50 with SNB-19, in the experiment on NCI-H23, in the experiment on SNB-78, in the experiment on M14, in the experiment with A498 and in the experiment with M19-MEL was > 100 µM (inactive) in each case. Further, the GI50 in the experiment with EKVX is > 100 µM (inactive); in the experiment with IGROV-1, > 100 µM (inactive); with OVCAR-8, > 100 µM (inactive); in the experiment on NCI-H460, > 100 µM (inactive); in the experiment on HOP-62, > 100 µM (inactive); with HCT-15, more than 100 µM. The GI50 is > 100 µM (inactive) in the experiment with SK-OV-3; > 100 µM (inactive) in the experiment on HCT-116; > 100 µM (inactive) in the experiment on SK-MEL-5; > 100 µM (inactive) in the experiment on SK-MEL-28; 30.9 µM (inactive) in the experiment on SF-295.
For the molecule `CCCC(O)C(NC(=O)CCl)C(=O)O` (stereo not drawn), the GI50 in the experiment with SNB-19, with NCI-H23, in the experiment on SNB-78, in the experiment with A498, in the experiment on M19-MEL and in the experiment with EKVX was > 100 µM (inactive) in each case. The GI50 in the experiment with IGROV-1 is > 100 µM (inactive); in the experiment with OVCAR-8, > 100 µM (inactive); in the experiment with NCI-H460, > 100 µM (inactive); with HOP-62, > 100 µM (inactive); with HCT-15, more than 100 µM; with SK-OV-3, > 100 µM (inactive). Moreover, the GI50 in the experiment with Malme-3M, in the experiment with HCT-116, with SK-MEL-5, with SK-MEL-2, with SK-MEL-28 and in the experiment on SF-295 was > 100 µM (inactive) each time.
Consider `CSCCC(NC(=O)C(Cc1ccccc1)NC(=O)CNC(=O)CNC(=O)C(N)Cc1ccc(O)cc1)C(=O)O` (stereo not drawn), for which the GI50 with SNB-19, in the experiment with NCI-H23, in the experiment on SNB-78, in the experiment on A498, in the experiment with M19-MEL and in the experiment on EKVX was > 100 µM (inactive) each time. Besides, the GI50 was > 100 µM (inactive) in the experiment on IGROV-1; > 100 µM (inactive) in the experiment on OVCAR-8; > 100 µM (inactive) in the experiment on NCI-H460; > 100 µM (inactive) in the experiment with HOP-62; more than 100 µM in the experiment on HCT-15; > 100 µM (inactive) with SK-OV-3. Further, the GI50 with Malme-3M, in the experiment with HCT-116, with SK-MEL-5, with SK-MEL-2, in the experiment on SK-MEL-28 and in the experiment with SF-295 was > 100 µM (inactive) throughout.
For the molecule `NNC(=S)N/N=C(\CCCC(=O)NCCc1ccccc1)CC(=O)c1ccccc1`, the GI50 in the experiment with SNB-19, in the experiment on NCI-H23, in the experiment on SNB-78, in the experiment with M14, in the experiment with A498 and with M19-MEL was > 100 µM (inactive) throughout. Further, the GI50 with EKVX was > 100 µM (inactive); in the experiment with IGROV-1, > 100 µM (inactive); in the experiment on OVCAR-8, > 100 µM (inactive); in the experiment with NCI-H460, > 100 µM (inactive); in the experiment with HOP-62, > 100 µM (inactive); with HCT-15, more than 100 µM. Besides, the GI50 in the experiment on Malme-3M, in the experiment on HCT-116, with SK-MEL-5, in the experiment on SK-MEL-2, in the experiment on SK-MEL-28 and in the experiment with SF-295 was > 100 µM (inactive) each time.
As to `CCCc1ccc(NCc2cc(OC)c(OC)c(OC)c2)cc1`, the GI50 with SNB-19 was 36.4 µM (inactive); in the experiment on NCI-H23, 22 µM (inactive); in the experiment with SNB-78, 56.9 µM (inactive); in the experiment on A498, 28.3 µM (inactive); in the experiment with M19-MEL, 20.5 µM (inactive); with EKVX, 61 µM (inactive). For the same molecule, the GI50 was 24.4 µM (inactive) in the experiment with IGROV-1; 35.3 µM (inactive) in the experiment with OVCAR-8; 55 µM (inactive) in the experiment with NCI-H460; 34.1 µM (inactive) in the experiment on HOP-62; 17.7 µM in the experiment on HCT-15; 22.3 µM (inactive) with SK-OV-3. Also, the GI50 is 19.4 µM (inactive) with Malme-3M; 24.7 µM (inactive) with HCT-116; 15.5 µM (inactive) in the experiment with SK-MEL-5; 18.6 µM (inactive) in the experiment with SK-MEL-2; 25.1 µM (inactive) in the experiment on SK-MEL-28.
On to `O=P(Nc1ccccc1)(Oc1ccccc1)N(CCCl)CCCl` (stereo not drawn), for which the GI50 with NCI-H23 was > 100 µM (inactive); in the experiment with SNB-78 it was > 100 µM (inactive); in the experiment with M14, 91.8 µM (inactive); in the experiment on A498, > 100 µM (inactive); in the experiment with M19-MEL, > 100 µM (inactive); in the experiment with EKVX, > 100 µM (inactive). Moreover, the GI50 with IGROV-1 is > 100 µM (inactive); in the experiment on OVCAR-8, 71.9 µM (inactive); in the experiment with HOP-62, > 100 µM (inactive); in the experiment on HCT-15, more than 100 µM; with SK-OV-3 it was 23.1 µM (inactive); in the experiment on Malme-3M, > 100 µM (inactive). For the same molecule, the GI50 with HCT-116 was > 100 µM (inactive); with SK-MEL-5, 39.4 µM (inactive); in the experiment with SK-MEL-2 it was 36.5 µM (inactive); in the experiment with SK-MEL-28 it was > 100 µM (inactive); in the experiment with SF-295, 69.3 µM (inactive).
Take `CC(=O)Nc1cccc(/N=N/N(C)C)c1`: the GI50 in the experiment with SNB-19, in the experiment with NCI-H23, in the experiment on SNB-78, in the experiment with A498, with M19-MEL and with EKVX was > 100 µM (inactive) in each case. Besides, the GI50 in the experiment on IGROV-1 was > 100 µM (inactive); in the experiment with OVCAR-8, > 100 µM (inactive); in the experiment with NCI-H460 it was > 100 µM (inactive); with HOP-62, > 100 µM (inactive); with HCT-15, more than 100 µM; in the experiment with SK-OV-3, > 100 µM (inactive). In addition, the GI50 with Malme-3M is > 100 µM (inactive); in the experiment with HCT-116, > 100 µM (inactive); in the experiment on SK-MEL-5 it was > 100 µM (inactive); in the experiment with SK-MEL-2, > 100 µM (inactive); with SK-MEL-28 it was > 95.3 µM (inactive); in the experiment on SF-295, > 63.8 µM (inactive).
Consider `NC(=O)c1ncn2c1NCC1OC2C(O)C1O` (stereo not drawn), for which the GI50 in the experiment on SNB-19, in the experiment with NCI-H23, with SNB-78, in the experiment with M14, in the experiment on A498 and in the experiment with M19-MEL was > 100 µM (inactive) each time. Also, the GI50 with EKVX, in the experiment on IGROV-1, in the experiment with OVCAR-8, with HOP-62, with SK-OV-3 and with Malme-3M was > 100 µM (inactive) in each case. Moreover, the GI50 with HCT-116, with SK-MEL-5, in the experiment on SK-MEL-2, with SK-MEL-28 and in the experiment on SF-295 was > 100 µM (inactive) throughout.
